Reference: US20240218017A1, “PEPTIDE AMPHIPHILES WITH MODIFIED DEGRADING SEQUENCES AND METHODS OF USE THEREOF” (UAB RESEARCH FOUNDATION, priority 2022, published 2024)
Peptide text beside a SMILES is read from it. * marks the point of attachment. Palmitoyl = CCCCCCCCCCCCCCCC(=O)*

Assay: Solubility in DI water at 1 wt % (visual observation, FIG. 5)
Type: physicochemical
Protocol: PA-C16-GTAGLKKK-YIGSR (SEQ ID NO: 19) and PA-C16-GTAKKKKK-YIGSR (SEQ ID NO:20) were dissolved in DI water at 1 wt %. […] Higher percent transmittance indicates less opaqueness of solution, which corresponds with increased solubility of the peptide amphiphiles in DI water. Thus, PA-C16-GTAGLKKK-YIGSR (SEQ ID NO: 19) and PA-C16-GTAKKKKK-YIGSR (SEQ ID NO:20) are more soluble than unmodified PA-C16-GTAGLIGQ-YIGSR (SEQ ID NO:21).

Row | SMILES | solubility
1 | CCCCCCCCCCCCCCCC(=O)NCC(=O)N[C@H](C(=O)N[C@@H](C)C(=O)N[C@@H](CCCCN)C(=O)N[C@@H](CCCCN)C(=O)N[C@@H](CCCCN)C(=O)N[C@@H](CCCCN)C(=O)N[C@@H](CCCCN)C(=O)N[C@@H](Cc1ccc(O)cc1)C(=O)N[C@H](C(=O)NCC(=O)N[C@@H](CO)C(=O)N[C@@H](CCCNC(=N)N)C(=O)O)[C@@H](C)CC)[C@@H](C)O [PA-C16-GTAKKKKK-YIGSR, PA-C16-GTAKKKKK-YIGSR (SEQ ID NO:20)] (Palmitoyl-GTAKKKKKYIGSR-OH; N-terminus and C-terminus assumed) | form homogenous, transparent solutions
2 | CCCCCCCCCCCCCCCC(=O)NCC(=O)N[C@H](C(=O)N[C@@H](C)C(=O)NCC(=O)N[C@@H](CC(C)C)C(=O)N[C@@H](CCCCN)C(=O)N[C@@H](CCCCN)C(=O)N[C@@H](CCCCN)C(=O)N[C@@H](Cc1ccc(O)cc1)C(=O)N[C@H](C(=O)NCC(=O)N[C@@H](CO)C(=O)N[C@@H](CCCNC(=N)N)C(=O)O)[C@@H](C)CC)[C@@H](C)O [PA-C16-GTAGLKKK-YIGSR, PA-C16-GTAGLKKK-YIGSR (SEQ ID NO:19)] (Palmitoyl-GTAGLKKKYIGSR-OH; N-terminus and C-terminus assumed) | form homogenous, transparent solutions
3 | CCCCCCCCCCCCCCCC(=O)NCC(=O)N[C@H](C(=O)N[C@@H](C)C(=O)NCC(=O)N[C@@H](CC(C)C)C(=O)N[C@H](C(=O)NCC(=O)N[C@@H](CCC(N)=O)C(=O)N[C@@H](Cc1ccc(O)cc1)C(=O)N[C@H](C(=O)NCC(=O)N[C@@H](CO)C(=O)N[C@@H](CCCNC(=N)N)C(=O)O)[C@@H](C)CC)[C@@H](C)CC)[C@@H](C)O [PA-C16-GTAGLIGQ-YIGSR, PA-C16-GTAGLIGQ-YIGSR (SEQ ID NO:21), reference compound] (Palmitoyl-GTAGLIGQYIGSR-OH; N-terminus and C-terminus assumed) | insoluble and forms precipitates
